According to PubChem BioAssay (NCI):
“And” between values parts separate entries of the source, which are not always exact repeats. Equal entries are not always repeated.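 Compound exposure: 48 hours, 5 concentrations, 96-well plates. GI50: concentration for 50% inhibition of growth. At the TGI there is no net growth.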

Legend:
Experiment in all cases: NCI-60 cell line screen, 48 h
[1] = system: K-562 leukemia
[2] = system: COLO 205 colon
[3] = system: HS 578T breast
[4] = system: T-47D breast
[5] = system: SW-620 colon
[6] = system: MALME-3M melanoma
[7] = system: HOP-62 NSCLC
[8] = system: NCI-H460 lung
[9] = system: CAKI-1 renal
[10] = system: PC-3 prostate

C=C(C)[C@@H]1CC[C@]2(CO)CC[C@]3(C)[C@H](CC[C@@H]4[C@@]5(C)CCCNC(C)(C)[C@@H]5CC[C@]43C)[C@@H]12
GI50 [1]: 1.08 µM
TGI [1]: 3.79 µM
GI50 [2]: 1.54 µM
TGI [2]: 3.24 µM
GI50 [3]: 1.99 µM
TGI [3]: 4.79 µM
GI50 [4]: 1.73 µM
TGI [4]: 3.71 µM
GI50 [5]: 1.81 µM
TGI [5]: 3.41 µM
GI50 [6]: 1.5 µM
TGI [6]: 3.05 µM
GI50 [7]: 1.81 µM
TGI [7]: 3.42 µM
GI50 [8]: 1.63 µM
TGI [8]: 3.21 µM
GI50 [9]: 1.55 µM
TGI [9]: 2.89 µM
GI50 [10]: 1.51 µM
TGI [10]: 2.94 µM

Cn1ncc(Cl)c1-c1cc(C(=O)N[C@H](CN)Cc2cccc(F)c2)sc1Cl
GI50 [1]: 1.33 µM and 2.24 µM
TGI [1]: 5.16 µM and 6.74 µM
GI50 [2]: 0.546 µM and 1.25 µM
TGI [2]: 1.84 µM and 5.21 µM
GI50 [3]: 0.2 µM and 0.339 µM
TGI [3]: 2.98 µM and 3.27 µM
GI50 [4]: 0.0272 µM and 0.0492 µM
TGI [4]: 1.48 µM
GI50 [5]: 2.16 µM and 7.33 µM
TGI [5]: > 10 µM and 21 µM
GI50 [6]: 1.08 µM and 0.969 µM
TGI [6]: 2.61 µM and 2.99 µM
GI50 [7]: 1.11 µM and 3.13 µM
TGI [7]: > 10 µM and 16.6 µM
GI50 [8]: 0.406 µM and 0.568 µM
TGI [8]: > 10 µM and 13.3 µM
GI50 [9]: 1.45 µM and 3.03 µM
TGI [9]: > 9.48 µM and 15.5 µM
GI50 [10]: 0.32 µM and 0.554 µM
TGI [10]: > 5.56 µM and 10.2 µM

CCSC[C@@H]1C[C@](O)(c2ccc(Cl)cc2)[C@@H](c2ccc(Cl)cc2)O1
GI50 [1]: 18.8 µM
TGI [1]: 44.2 µM
GI50 [2]: 14.4 µM
TGI [2]: 28.7 µM
GI50 [3]: 18 µM
TGI [3]: 39.6 µM
GI50 [4]: 14.8 µM
TGI [4]: 38.6 µM
GI50 [5]: 14.4 µM
TGI [5]: 33.6 µM
GI50 [6]: 15.2 µM
TGI [6]: 29.8 µM
GI50 [7]: 16.7 µM
TGI [7]: 30.7 µM
GI50 [8]: 17.3 µM
TGI [8]: 34.1 µM
GI50 [9]: 27.6 µM
TGI [9]: 63.2 µM
GI50 [10]: 20 µM
TGI [10]: 39.1 µM

COc1cnc2c(c1)C(=O)c1c-2n(CCCN2CCCC2)c(=O)c2cc([N+](=O)[O-])ccc12
GI50 [1]: 0.0226 µM
TGI [1]: 1.9 µM
GI50 [2]: 0.0354 µM
TGI [2]: 13.8 µM
GI50 [3]: 1.91 µM
TGI [3]: 23.2 µM
GI50 [4]: 0.0179 µM
TGI [4]: 12.8 µM
GI50 [5]: < 0.01 µM
TGI [5]: 1.34 µM
GI50 [6]: 0.0558 µM
TGI [6]: 1.15 µM
GI50 [7]: < 0.01 µM
TGI [7]: 1.24 µM
GI50 [8]: < 0.01 µM
TGI [8]: 0.116 µM
GI50 [9]: < 0.01 µM
TGI [9]: 1.46 µM
GI50 [10]: 0.0662 µM
TGI [10]: 13.9 µM

Cc1cc2c(F)c(Oc3ncnc(Nc4ccc(N5C[C@@H](C)N[C@@H](C)C5)cc4)c3C#N)cc(F)c2[nH]1
GI50 [1]: 1.62 µM
TGI [1]: 3.83 µM
GI50 [2]: 1.68 µM
TGI [2]: 3.58 µM
GI50 [3]: 1.77 µM
TGI [3]: 5.4 µM
GI50 [4]: 1.97 µM
TGI [4]: 5.57 µM
GI50 [5]: 1.83 µM
TGI [5]: 4.1 µM
GI50 [6]: 1.61 µM
TGI [6]: 3.48 µM
GI50 [7]: 2.86 µM
TGI [7]: 9.87 µM
GI50 [8]: 2.06 µM
TGI [8]: 4.37 µM
GI50 [9]: 2.99 µM
TGI [9]: 10.9 µM
GI50 [10]: 3.05 µM
TGI [10]: 11.4 µM

COc1cc2nc(N3CCCN(C)CC3)nc(NC3CCN(Cc4ccccc4)CC3)c2cc1OC
GI50 [1]: 1.47 µM
TGI [1]: 4.56 µM
GI50 [2]: 1.84 µM
TGI [2]: 3.51 µM
GI50 [3]: 2.04 µM
TGI [3]: 5.59 µM
GI50 [4]: 2.53 µM
TGI [4]: 6.25 µM
GI50 [5]: 2.96 µM
TGI [5]: 9.64 µM
GI50 [6]: 1.87 µM
TGI [6]: 3.37 µM
GI50 [7]: 3.23 µM
TGI [7]: 10.6 µM
GI50 [8]: 2.19 µM
TGI [8]: 4.81 µM
GI50 [9]: 1.63 µM
TGI [9]: 3.71 µM
GI50 [10]: 4.4 µM
TGI [10]: 20.1 µM

NC(=S)N/N=C/c1ccc(OC(=O)COc2cc(Cl)c(Cl)cc2Cl)cn1
GI50 [1]: 5.56 µM
TGI [1]: > 100 µM
GI50 [2]: 7.39 µM
TGI [2]: > 100 µM
GI50 [3]: 51 µM
TGI [3]: > 100 µM
GI50 [4]: 2.87 µM
TGI [4]: > 100 µM
GI50 [5]: 5.75 µM
TGI [5]: > 100 µM
GI50 [6]: 4.96 µM
TGI [6]: > 100 µM
GI50 [7]: 3.68 µM
TGI [7]: 38.4 µM
GI50 [8]: 6.1 µM
TGI [8]: > 100 µM
GI50 [9]: 3.97 µM
TGI [9]: > 100 µM
GI50 [10]: 4.59 µM
TGI [10]: > 100 µM

CCOC(=O)c1ccc(-n2cnc(-c3ccc([N+](=O)[O-])cc3)c2)cc1
TGI [1]: > 100 µM
TGI [2]: > 100 µM
TGI [3]: > 100 µM
TGI [4]: > 100 µM
TGI [5]: > 100 µM
TGI [6]: > 100 µM
TGI [7]: > 100 µM
TGI [8]: > 100 µM
TGI [9]: > 100 µM
TGI [10]: > 100 µM

COc1nc(N)nc2c1ncn2C1CC(O)C(CO)O1 (stereo not given)
TGI [1]: > 100 µM
TGI [2]: > 100 µM
TGI [3]: > 100 µM
TGI [4]: > 100 µM
TGI [5]: > 100 µM
TGI [6]: > 100 µM
TGI [7]: > 100 µM
TGI [8]: > 100 µM
TGI [9]: > 100 µM
TGI [10]: > 100 µM

CC(=O)O.CN1[CH-]N(Cc2ccc(C#N)cc2)c2ccccc21.[Ag+]
GI50 [1]: 18 µM
TGI [1]: 46 µM
GI50 [2]: 10.3 µM
TGI [2]: 31.5 µM
GI50 [3]: > 100 µM
TGI [3]: > 100 µM
GI50 [4]: 14.8 µM
TGI [4]: 60.1 µM
GI50 [5]: 15.3 µM
TGI [5]: 31 µM
GI50 [6]: 19.8 µM
TGI [6]: 41.5 µM
GI50 [7]: 47.4 µM
TGI [7]: > 100 µM
GI50 [8]: > 100 µM
TGI [8]: > 100 µM
GI50 [9]: 18.2 µM
TGI [9]: 33.9 µM
GI50 [10]: 13.5 µM
TGI [10]: 28.5 µM
